According to patent US12544372B2, “Methods of treating rheumatoid arthritis, chronic spontaneous urticaria, and systemic lupus erythematosis using an inhibitor of Bruton's tyrosine kinase” (Genentech, Inc., priority 2019, dated 2026):
Marks after values point to notes of the source that are not given here.

Assays:
Assay type in all cases: in vivo, human
IL-6 = test: RA study biomarker: IL-6 (immunoassay)
Experimental: (§1) Biomarkers were evaluated in serum or plasma samples at baseline and weeks 1, 4, and 12 in patients with available samples (cohort 1: n=438; cohort 2: n=86). The biomarkers evaluated in this assessment were chemokine [C-C motif] ligand 4 (CCL4), IL-6, and TNF-like cytokine 1A (TL1A). Total IgM, IgG, rheumatoid factor IgM autoantibody (RF), CCL4, TL1A, IL-6, and anti-CCP autoantibody (ACPA IgG) levels were analyzed with immunoassays. CD19^+ B cells and CD3^+ T cells were measured by flow cytometry. The proportion of patients achieving an ACR50 response at week 12 and the change in DAS28 score by week 12 were assessed relative to seropositivity (RF and/or ACPA positive at baseline) or baseline levels of RF in both cohorts. To select which biomarkers to evaluate in this trial, BTK-dependent myeloid biomarkers were identified using peripheral blood CD14^+ monocytes stimulated with immune-complexes in the presence or absence of a BTK inhibitor. In brief, the expression levels of genes in human monocytes were assayed under conditions of no stimulation; with human serum albumin immune complex stimulation; with stimulation and a low concentration of a BTK inhibitor with similar characteristics to fenebrutinib; or with stimulation and a high concentration of the BTK inhibitor. […] Genes annotated with cytokine activity were selected. The color bar represents normalized gene expression.

CD19+ B cells = test: SLE study biomarker: CD19+ B cells
Experimental: (§2) The following biomarkers were explored according to the biomarker objectives provided above in the Study Objectives. In Table 13, biomarkers are measured at baseline and subsequent timepoints during and after treatment. One set of biomarkers evaluated is the plasmablast signature. Plasmablasts are rapidly dividing, short-lived antibody secreting cells. While they represent a small proportion of B cells in the blood, they are responsible for a majority of antibody transcripts found in whole blood mRNA. The plasmablast signature comprises the biomarkers IgJ, Mzbl, and Txndc5. The gene expression of IgJ, Mzbl, and Txndc5 may be measured, for example, a polypeptide expression by evaluating the level of mRNA for said gene in a patient's blood relative to a reference level.

Total IgM = test: RA study biomarker: total IgM
Experimental: as §1, with “Biomarkers were evaluated in serum or plasma samples at baseline and weeks 1, 4, and 12 in patients with available samples (cohort 1: n=438; cohort 2: n=86).” left out

ACPA IgG = test: RA study biomarker: ACPA IgG
Experimental: as §1

C3 = test: SLE study biomarker: C3
Experimental: as §2

CXCL13 = test: RA study biomarker: CXCL13
C4 = test: SLE study biomarker: C4
Experimental: as §2

CRP = test: RA study: CRP versus baseline
Experimental: As used herein, “CRP” refers to C-reactive protein, or the blood test for inflammation in the body which measures C-reactive protein in the blood. CRP, a protein produced in the liver, will increase in concentration in the blood in response to inflammation. CRP may be measured by a “hsCRP” test, which measures high sensitivity CRP. In some embodiments, a positive result for elevated CRP is as measured by hsCRP ≥0.400 mg/dL hsCRP test. In other embodiments, a positive result for elevated CRP is as measured by a hsCRP ≥0.650 mg/dL hsCRP test. CRP tests are widely available from a variety of vendors (LabCorp, Quest Diagnostics, Life Line Screening, etc.).
The specific components of the ACR Assessments used in this study are as follows: Tender/Painful Joint Count (68), Swollen Joint Count (66), Patient's Assessment of Arthritis Pain, Patient's Global Assessment of Arthritis, Physician's Global Assessment of Arthritis, CRP and HAQ-DI.

[1] = cohort 2, 200 mg twice daily, by week 12

For `C[C@H]1CN(C2COC2)CCN1c1ccc(Nc2cc(-c3ccnc(N4CCn5c(cc6c5CC(C)(C)C6)C4=O)c3CO)cn(C)c2=O)nc1` [fenebrutinib, (S)-2-(3′-(hydroxymethyl)-1-methyl-5-((5-(2-methyl-4-(oxetan-3-yl)piperazin-1-yl)pyridin-2-yl)amino)-6-oxo-1,6-dihydro-[3,4′-bipyridin]-2′-yl)-7,7-dimethyl-2,3,4,6,7,8-hexahydro-1H-cyclopenta[4,5]pyrrolo[1,2-a]pyrazin-1-one], the “IL-6 reduction relative to placebo” value (IL-6; Cohort 1, by week 12) was “not observed”, the “IL-6 levels relative to placebo” value (IL-6; [1]) was −50% and the “CD19+ B cells, Median Change from Baseline at Week 48” value (CD19+ B cells; 150 mg QD) was −57.0* cells/μl. The “CD19+ B cells, Median Change from Baseline at Week 48” value (CD19+ B cells; 200 mg BID) was −57.5* cells/μl, the “Total IgM Reduction as % of Baseline” value (Total IgM; Cohort 1, 50 mg QD, Week 4) was 94% and the “Total IgM Reduction as % of Baseline” value (Total IgM; Cohort 1, 50 mg QD, Week 8) was 91%*. For the same molecule, the “Total IgM Reduction as % of Baseline” value (Total IgM; Cohort 1, 50 mg QD, Week 12) was 88%*, the “Total IgM Reduction as % of Baseline” value (Total IgM; Cohort 1, 150 mg QD, Week 4) was 91%* and the “Total IgM Reduction as % of Baseline” value (Total IgM; Cohort 1, 150 mg QD, Week 8) was 88%*. The “Total IgM Reduction as % of Baseline” value (Total IgM; Cohort 1, 150 mg QD, Week 12) was 86%*, the “Total IgM Reduction as % of Baseline” value (Total IgM; Cohort 1, 200 mg BID, Week 4) was 92%* and the “Total IgM Reduction as % of Baseline” value (Total IgM; Cohort 1, 200 mg BID, Week 8) was 86%*. For the same molecule, the “Total IgM Reduction as % of Baseline” value (Total IgM; Cohort 1, 200 mg BID, Week 12) was 84%*, the “Total IgM absolute reduction relative to placebo” value (Total IgM; cohort 1, 200 mg twice daily, by week 12) was -22 mg/dL and the “Total IgM reduction relative to placebo” value (Total IgM; [1]) was -17 mg/dL. For the same molecule, the “ACPA IgG levels relative to placebo” value (ACPA IgG; cohort 1) was “not significantly changed relative to placebo”, the “ACPA IgG levels change” value (ACPA IgG; cohort 2, 200 mg twice daily, by week 12 (+15% in the placebo group)) was −24% and the “C3, Median Change from Baseline at Week 48” value (C3; 150 mg QD) was “+0.01 g/L”. For the same molecule, the “C3, Median Change from Baseline at Week 48” value (C3; 200 mg BID) was -0.01 g/L, the “CXCL13 Reduction as % of Baseline” value (CXCL13; Cohort 1, 50 mg QD, Week 4) was 63%* and the “CXCL13 Reduction as % of Baseline” value (CXCL13; Cohort 1, 50 mg QD, Week 12) was 62%*. For the same molecule, the “CXCL13 Reduction as % of Baseline” value (CXCL13; Cohort 1, 150 mg QD, Week 4) was 65%*, the “CXCL13 Reduction as % of Baseline” value (CXCL13; Cohort 1, 150 mg QD, Week 12) was 58%* and the “CXCL13 Reduction as % of Baseline” value (CXCL13; Cohort 1, 200 mg BID, Week 4) was 67%*. The “CXCL13 Reduction as % of Baseline” value (CXCL13; Cohort 1, 200 mg BID, Week 12) was 62%*, the “C4, Median Change from Baseline at Week 48” value (C4; 150 mg QD) was “+0.02* g/L” and the “C4, Median Change from Baseline at Week 48” value (C4; 200 mg BID) was “+0.01* g/L”. The “CRP, % of BL CRP” value (CRP; Cohort 1, 200 mg BID, Week 8 and Week 12) was 59% and the CRP levels (CRP; Cohort 2, Week 8 and Week 12) was “reduced CRP levels”.
